These results are taken from patent US4950667A, “Pyridinyl acetamide compounds useful in treating ulcers” (Hamari Chemicals, Ltd., priority 1988, dated 1990).

Structures can show the parent of a compound that is named as a salt.

The test system of data set [1] is water-immersion stress-induced gastric ulcer (Slc:SD rats). In words: Water-immersion stress ulceration method. Type of data set: in vivo, rat (male Slc:SD). The note with it: for Inhibition rate: vs non-treated control. As to the method:
The stomachs were incised along the greater curvature, and the ulcers thus induced were measured for length under the stereoscopic microscope (magnification,×10), whereby the total sum of the lengths was taken as an ulcer index (U.I., in mm). The test substance was given orally to rats in the form of a 4% gum arabic suspension 30 minutes before stress loading.

The next data set can be described thus: Acute toxicity. As to conditions: mouse, in vivo; male ddY mice, single oral dose, observed for 7 days. The text has this:
A group of five male ddY mice (4-weeks aged) was used for testing.
The compound of Example 1 was suspended in 4% gum arabic solution to prepare a test pharmaceutical, which was given orally to each test animals once.

The mark [2] stands for this setting: 30 mg/kg, oral, 30 minutes before stress loading, 7 hours stress.
Setting [3] is: 10 mg/kg, oral, 30 minutes before stress loading, 7 hours stress.

`CN/C(=N/CCSCc1nc[nH]c1C)NC#N` [Cimetidine, reference compound] showed an Inhibition rate in data set [1] (30 mg/kg, control reference (Cimetidine), no significance mark) of 61.4%. Also, the “ulcer index (U.I.), Mean ± S.E.” value in data set [1] (setting [2]) is recorded as 5.2 ± 3.40 mm.

By LD50 is commonly meant the dose at which mortality reaches 50%. As to `O=C(CNc1ccncc1)Nc1ccccc1Nc1ccccc1` [Example 1, N-[2-(phenylamino),phenyl]-2-[(4-pyridinyl)-amino]actetamide hydrochloride], the “ulcer index (U.I.), Mean ± S.E.” value in data set [1] (setting [3]) is on record as 13.0 ± 4.47 mm; in data set [1] (setting [2]), 3.8 ± 1.66 mm; in data set [1] (100 mg/kg, oral, 30 minutes before stress loading, 7 hours stress), 1.5 ± 1.31 mm. In addition, the Inhibition rate in data set [1] (setting [3]) was found to be 2.8%; in data set [1] (30 mg/kg, oral, 30 minutes before stress loading, 7 hours stress, *p < 0.05), 71.3%; in data set [1] (100 mg/kg, oral, 30 minutes before stress loading, 7 hours stress, **p < 0.01), 88.8%. Moreover, the LD50 at 168 h in “Acute toxicity” is not below 2000 mg/kg.
